Laboratory results published in US11541099B2, “Flounder surimi having antioxidant and antihypertensive effects and method of preparing the same” (Jeju National University Industry-Academic Cooperation …, priority 2017, dated 2023).
Converted amounts (≈) assume the structure as drawn. Residues, ends and D or L forms follow the SMILES beside them. No end group written: not given here.

Legend:
[1] = target: T1, angiotensin I converting enzyme (ACE) (Oryctolagus cuniculus, UniProt P12822); assay: ACE inhibition activity (modified Cushman and Cheung's method); type: biochemical, rabbit; conditions: read-out: concentration inhibiting 50% of ACE (IC50) (converted)
T1 construct: The crude enzyme solution used herein was the supernatant obtained by centrifuging; tissue Sigma-Aldrich Co; host or cells: rabbit lung (acetone powder, crude extract supernatant)
T1 sequence (P12822 34-1310): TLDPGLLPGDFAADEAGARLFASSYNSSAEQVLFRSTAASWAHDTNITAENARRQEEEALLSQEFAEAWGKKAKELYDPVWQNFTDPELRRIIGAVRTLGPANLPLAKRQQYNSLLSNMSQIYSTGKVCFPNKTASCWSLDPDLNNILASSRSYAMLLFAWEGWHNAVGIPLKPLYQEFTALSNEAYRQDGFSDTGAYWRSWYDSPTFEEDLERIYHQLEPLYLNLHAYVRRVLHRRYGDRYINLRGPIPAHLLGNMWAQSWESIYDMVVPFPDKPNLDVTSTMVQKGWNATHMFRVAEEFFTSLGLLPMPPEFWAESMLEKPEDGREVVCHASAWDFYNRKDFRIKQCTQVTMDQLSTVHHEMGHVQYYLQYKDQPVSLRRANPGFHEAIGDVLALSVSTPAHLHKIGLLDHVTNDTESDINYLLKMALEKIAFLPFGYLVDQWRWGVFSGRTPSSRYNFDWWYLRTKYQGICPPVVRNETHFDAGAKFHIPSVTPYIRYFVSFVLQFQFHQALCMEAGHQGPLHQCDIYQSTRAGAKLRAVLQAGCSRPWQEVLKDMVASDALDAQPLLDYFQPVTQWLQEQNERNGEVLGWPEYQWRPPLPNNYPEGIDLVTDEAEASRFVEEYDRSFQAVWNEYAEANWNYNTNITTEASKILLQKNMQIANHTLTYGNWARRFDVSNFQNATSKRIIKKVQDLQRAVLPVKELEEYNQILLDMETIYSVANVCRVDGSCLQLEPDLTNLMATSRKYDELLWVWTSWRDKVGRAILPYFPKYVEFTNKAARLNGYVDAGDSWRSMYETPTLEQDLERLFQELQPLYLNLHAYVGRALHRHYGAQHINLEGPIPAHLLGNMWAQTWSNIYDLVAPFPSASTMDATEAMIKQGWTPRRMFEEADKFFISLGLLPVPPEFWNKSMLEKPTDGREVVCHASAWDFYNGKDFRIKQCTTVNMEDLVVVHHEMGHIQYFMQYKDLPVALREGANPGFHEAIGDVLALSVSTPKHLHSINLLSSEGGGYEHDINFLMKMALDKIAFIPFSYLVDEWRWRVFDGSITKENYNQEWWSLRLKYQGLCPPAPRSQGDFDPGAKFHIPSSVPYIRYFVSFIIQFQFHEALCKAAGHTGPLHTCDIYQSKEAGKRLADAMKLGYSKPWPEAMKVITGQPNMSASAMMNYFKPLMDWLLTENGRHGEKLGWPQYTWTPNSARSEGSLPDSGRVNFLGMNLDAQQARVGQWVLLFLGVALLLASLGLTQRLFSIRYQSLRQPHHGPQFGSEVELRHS
Method: ACE inhibition activity was measured by a modified version of Cushman and Cheung's method. The crude enzyme solution used herein was the supernatant obtained by centrifuging (4° C., 4,000 rpm, 40 min) after extracting a rabbit lung acetone powder (Sigma-Aldrich Co.) at a concentration of 0.2 g/10 mL (w/v) and at 4° C. for 24 hours. The substrate was prepared by dissolving hippurylhistidyl-leucine ([…], Sigma-Aldrich Co.) at a concentration of 5 mg/mL (w/v) in a 0.1 M sodium borate buffer (pH 8.3) containing 0.3 M NaCl.
ACE inhibition activity was determined as follows. 50 μL of an ACE enzyme solution was added to 50 μL of a sample extract, reaction was proceeded at 37° C. for 5 minutes, 50 μL of a substrate was added thereto and the reaction was proceeded at 37° C. for 1 hour. Then, 150 μL of 1N HCl was added to stop the reaction, 750 μL of ethyl acetate was added thereto, and the mixture was stirred for 1 minute and centrifuged (3,500 rpm, 10 min) to obtain 500 μL of the supernatant. The supernatant was completely dried at 105° C. for 4 hours, 2 mL of ethyl acetate was added thereto, and the absorbance was measured at 228 nm. A control group was obtained by adding 50 μL of distilled water, instead of the sample extract.

[2] = Alkyl radical scavenging activity by ESR; conditions: peptides isolated from Fraction 2
Method: In order to identify the radical scavenging ability using ESR (electron spin resonance spectrometer, JES-FA ESR, JEOL, Japan), ESR equipment owned by the Center for University-Wide Research Facilities, Jeju University was used and was in accordance with a modified version of the method by Hiramoto (1993). 20 μL of a sample was mixed with 20 μL of distilled water, 20 μL of 40 mM AAPH and 20 μL of 40 mM POBN were added to the resulting mixture, the reaction was proceeded at 37° C. for 30 minutes and the reaction solution was transferred to a capillary tube. The conditions used for analysis were as follows: central field: 3475 G, modulation width: 0.2 mT, 22 amplitude: 500 mT, scan width: 10 mT, set microwave power: 8 mW.

Compound: CC[C@H](C)[C@H](N)C(=O)N[C@H](C(=O)N[C@@H](CC(=O)O)C(=O)N[C@@H](CCCNC(=N)N)C(=O)O)C(C)C [IVDR, Ile-Val-Asp-Arg] (H-IVDR-OH; N-terminus and C-terminus assumed)
- IC50 [1]: 63.8 µM
- IC50 value Alkyl radical scavenging activity [2]: 68 µg/mL (≈ 136 µM)

Compound: NCCCC[C@H](NC(=O)[C@H](Cc1ccc(O)cc1)NC(=O)[C@@H](N)Cc1c[nH]c2ccccc12)C(=O)O [WYK, Trp-Tyr-Lys] (H-Trp-Tyr-Lys-OH; N-terminus and C-terminus assumed)
- IC50 [1]: 32.3 µM
- IC50 value Alkyl radical scavenging activity [2]: 40 µg/mL (≈ 80.7 µM)

Compound: VASVI [VASVI, Val-Ala-Ser-Val-Ile]
- IC50 [1]: 117 µM
- IC50 value Alkyl radical scavenging activity [2]: 77 µg/mL
